Molecular target: MelBSt; Salmonella typhimurium melibiose permease (Salmonella enterica, UniProt P30878)
Experiment: CD thermal denaturation at […] nm, purified in DDM
Assay type: binding
Conditions: 50 mM melibiose, 100 mM LiCl, 20 mM NaPi pH 7.5, 10% glycerol, 0.01% DDM

Chain of MelBSt; Salmonella typhimurium melibiose permease (P30878 whole entry): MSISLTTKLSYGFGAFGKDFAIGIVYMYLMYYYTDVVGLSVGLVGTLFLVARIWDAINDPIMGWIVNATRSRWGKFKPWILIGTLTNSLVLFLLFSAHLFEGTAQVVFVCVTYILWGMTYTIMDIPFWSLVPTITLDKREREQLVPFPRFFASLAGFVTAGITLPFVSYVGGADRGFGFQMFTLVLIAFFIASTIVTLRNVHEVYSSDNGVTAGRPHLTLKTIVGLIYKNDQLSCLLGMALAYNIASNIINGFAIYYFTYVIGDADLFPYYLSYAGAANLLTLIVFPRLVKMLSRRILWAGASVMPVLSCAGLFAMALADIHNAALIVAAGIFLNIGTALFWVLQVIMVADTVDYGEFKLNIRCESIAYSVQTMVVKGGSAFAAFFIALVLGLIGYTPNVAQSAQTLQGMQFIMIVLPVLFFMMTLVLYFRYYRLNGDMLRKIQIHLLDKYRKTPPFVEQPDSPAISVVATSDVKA

Compound OC[C@H]1O[C@H](OC[C@H]2OC(O)[C@H](O)[C@@H](O)[C@@H]2O)[C@H](O)[C@@H](O)[C@H]1O (stereo partly shown) [melibiose] has a WT of 63.87 ± 0.04 °C.

Reference: PMC9177823 (Journal of molecular biology, 2022)
